{
  "source": "patent US20060069132A1",
  "about": "“Azolecarboxamide herbicides” (priority 2004, published 2006)",
  "key": {"large crabgrass": {"tested_on": "large crabgrass", "assay": "Test E pre-/postemergence herbicide test", "assay_type": "in vivo, Digitaria sanguinalis", "details": "Preemergence", "text": "(§1) Seeds of plant species selected from bipinnate beggarticks (Bidens bipinnata L.), hairy beggarticks (Bidens radiata Thuill.), bermudagrass (Cynodon dactylon (L.) Pers.), Surinam grass (Urochloa decumbens (Staph) R. D. Webster, previously named Brachiaria decumbens Stapf), large crabgrass (Digitaria sanguinalis (L.) Scop.), green foxtail (Setaria viridis (L.) P. Beauv.), goosegrass (Eleusine indica (L.) Gaertn.), johnsongrass (Sorghum halepense (L.) Pers.), kochia (Kochia scoparia (L.) Schrad.), pitted morningglory (Ipomoea lacunosa L.), purple nutsedge (Cyperus rotundus L.), common ragweed (Ambrosia elatior L.), mustard (Brassica nigra (L.) W. D. J. Koch), guineagrass (Panicum maximum Jacq.), dallisgrass (Paspalum dilatatum Poir.), barnyardgrass (Echinochloa crus-galli (L). P. Beauv.), southern sandbur (Cenchrus echinatus L.), common sowthistle (Sonchus oleraceous L.), prickly sida (Sida spinosa L.), Italian ryegrass (Lolium multiflorum Lam.), common purslane (Portulaca oleracea L.), broadleaf signalgrass (Brachiaria platyphylla (Griseb.) Nash), common groundsel (Senecio vulgaris L.), common chickweed (Stellaria media (L.) Vill/Cyr.), tropical spiderwort (Commelina benghalensis L.), annual bluegrass (Poa annua L.), downy bromegrass (Bromus tectorum L.), itchgrass (Rottboellia cochinchinensis (L.) L.f.), quackgrass (Elytrigia repens (L.) Nevski), Canada horseweed (Erigeron Canadensis L.), field bindweed (Convolvulus arvensis L.), spotted spurge (Euphorbia maculata L.), common mallow (Malva sylvestris (=s silvestris) L.), and Russian thistle (Salsola kali L. ssp. Ruthenica (Iljin) Soo) were planted and treated preemergence with test chemicals formulated in a non-phytotoxic solvent mixture which included a surfactant.\n(§2) At the same time, plants selected from these weed species were treated with postemergence applications of some of the test chemicals formulated in the same manner. Plants ranged in height from 2 to 18 cm (1- to 4-leaf stage) for postemergence treatments. Treated plants and controls were maintained in a greenhouse for 12 to 14 days, after which time all species were compared to controls and visually evaluated. Plant response ratings, summarized in Table E, are based on a scale of 0 to 100 where 0 is no effect and 100 is complete control. A dash (-) response means no test result."}, "common ragweed": {"tested_on": "common ragweed", "assay": "Test E pre-/postemergence herbicide test", "assay_type": "in vivo, Ambrosia elatior", "details": "Preemergence", "text": "as §1, §2"}, "dallisgrass": {"tested_on": "dallisgrass", "assay": "Test E pre-/postemergence herbicide test", "assay_type": "in vivo, Paspalum dilatatum", "details": "Preemergence", "text": "as §1, §2"}, "common sowthistle": {"tested_on": "common sowthistle", "assay": "Test E pre-/postemergence herbicide test", "assay_type": "in vivo, Sonchus oleraceous", "details": "Preemergence", "text": "as §1, §2"}, "prickly sida": {"tested_on": "prickly sida", "assay": "Test E pre-/postemergence herbicide test", "assay_type": "in vivo, Sida spinosa", "details": "Preemergence, scale 0 (no effect) to 100 (complete control)", "text": "as §1, §2"}, "annual bluegrass": {"tested_on": "annual bluegrass", "assay": "Test E pre-/postemergence herbicide test", "assay_type": "in vivo, Poa annua", "details": "Preemergence", "text": "as §1, §2"}, "itchgrass": {"tested_on": "itchgrass", "assay": "Test E pre-/postemergence herbicide test", "assay_type": "in vivo, Rottboellia cochinchinensis", "details": "Preemergence", "text": "as §1, §2"}, "quackgrass": {"tested_on": "quackgrass", "assay": "Test E pre-/postemergence herbicide test", "assay_type": "in vivo, Elytrigia repens", "details": "Preemergence", "text": "as §1, §2"}, "field bindweed": {"tested_on": "field bindweed", "assay": "Test E pre-/postemergence herbicide test", "assay_type": "in vivo, Convolvulus arvensis", "details": "Preemergence", "text": "as §1, §2"}, "windgrass": {"tested_on": "windgrass", "assay": "Test C postemergence herbicide test", "assay_type": "in vivo, Apera spica-venti", "protocol": "At the same time, plants selected from these crop and weed species and also winter barley (Hordeum vulgare L.), blackgrass (Alopecurus myosuroides Huds.), canarygrass (Phalaris minor Retz.), chickweed (Stellaria media (L.) Vill.), downy bromegrass (Bromus tectorum L.), green foxtail (Setaria viridis (L.) Beauv.), Italian ryegrass (Lolium multiflorum Lam.), wheat (Triticum aestivum L.), wild oat (Avenafatua L.) and windgrass (Apera spica-venti (L.) Beauv.) were treated with postemergence applications of some of the test chemicals formulated in the same manner. Plants ranged in height from 2 to 18 cm (1- to 4-leaf stage) for postemergence treatments. Plant species in the flooded paddy test consisted of rice (Oryza sativa), smallflower umbrella sedge (Cyperus difformis L.), ducksalad (Heteranthera limosa (Sw.) Willd.) and barnyardgrass (Echinochloa crus-galli (L.) Beauv.) grown to the 2-leaf stage for testing. Treated plants and controls were maintained in a greenhouse for 12 to 14 days, after which time all species were compared to controls and visually evaluated. Plant response ratings, summarized in Table C, are based on a scale of 0 to 100 where 0 is no effect and 100 is complete control. A dash (-) response means no test result."}, "[1]": {"details": "250 g ai/ha, scale 0 (no effect) to 100 (complete control)"}, "[2]": {"details": "375 g ai/ha, scale 0 (no effect) to 100 (complete control)"}, "[3]": {"details": "500 g ai/ha, scale 0 (no effect) to 100 (complete control)"}, "[4]": {"details": "Postemergence, 250 g ai/ha, scale 0 to 100, 0 no effect, 100 complete control"}, "[5]": {"details": "postemergence, 125 g ai/ha, scale 0 to 100"}, "[6]": {"details": "postemergence, 62 g ai/ha, scale 0 to 100"}, "[7]": {"details": "Postemergence, 500 g ai/ha, scale 0 to 100, 0 no effect, 100 complete control"}},
  "data": [
    {"smiles": "CCc1nn(C(C)(C)C)cc1C(=O)Nc1cc(C(=O)N(C)C)ccn1", "note": "[Compound 293]", "values": [
      {"measurement": "Plant response rating, Crabgrass, Large", "setting": "large crabgrass; 125 g ai/ha, scale 0 to 100", "result": 95},
      {"measurement": "Plant response rating, Crabgrass, Large", "setting": "large crabgrass; [1]", "result": 95},
      {"measurement": "Plant response rating, Crabgrass, Large", "setting": "large crabgrass; [2]", "result": 100},
      {"measurement": "Plant response rating, Crabgrass, Large", "setting": "large crabgrass; [3]", "result": 100},
      {"measurement": "Plant response rating, Ragweed", "setting": "common ragweed; 125 g ai/ha, scale 0 to 100", "result": 50},
      {"measurement": "Plant response rating, Ragweed", "setting": "common ragweed; [1]", "result": 70},
      {"measurement": "Plant response rating, Ragweed", "setting": "common ragweed; [2]", "result": 100},
      {"measurement": "Plant response rating, Ragweed", "setting": "common ragweed; [3]", "result": 100},
      {"measurement": "Plant response rating, Dallisgrass", "setting": "dallisgrass; 125 g ai/ha, scale 0 to 100", "result": 60},
      {"measurement": "Plant response rating, Dallisgrass", "setting": "dallisgrass; [1]", "result": 95},
      {"measurement": "Plant response rating, Dallisgrass", "setting": "dallisgrass; [2]", "result": 95},
      {"measurement": "Plant response rating, Dallisgrass", "setting": "dallisgrass; [3]", "result": 100},
      {"measurement": "Plant response rating, Sowthistle", "setting": "common sowthistle; 125 g ai/ha, scale 0 to 100", "result": 75},
      {"measurement": "Plant response rating, Sowthistle", "setting": "common sowthistle; [1]", "result": 95},
      {"measurement": "Plant response rating, Sowthistle", "setting": "common sowthistle; [2]", "result": 95},
      {"measurement": "Plant response rating, Sowthistle", "setting": "common sowthistle; [3]", "result": 100},
      {"measurement": "Plant response rating, Prickly Sida", "setting": "prickly sida; 250 g ai/ha", "result": 80},
      {"measurement": "Plant response rating, Prickly Sida", "setting": "prickly sida; 375 g ai/ha", "result": 100},
      {"measurement": "Plant response rating, Prickly Sida", "setting": "prickly sida; 500 g ai/ha", "result": 100},
      {"measurement": "Plant response rating, Bluegrass", "setting": "annual bluegrass; 125 g ai/ha, scale 0 to 100", "result": 95},
      {"measurement": "Plant response rating, Bluegrass", "setting": "annual bluegrass; [1]", "result": 95},
      {"measurement": "Plant response rating, Bluegrass", "setting": "annual bluegrass; [2]", "result": 95},
      {"measurement": "Plant response rating, Bluegrass", "setting": "annual bluegrass; [3]", "result": 100},
      {"measurement": "Plant response rating, Itchgrass", "setting": "itchgrass; 125 g ai/ha, scale 0 to 100", "result": 10},
      {"measurement": "Plant response rating, Itchgrass", "setting": "itchgrass; [1]", "result": 90},
      {"measurement": "Plant response rating, Itchgrass", "setting": "itchgrass; [2]", "result": 100},
      {"measurement": "Plant response rating, Itchgrass", "setting": "itchgrass; [3]", "result": 100},
      {"measurement": "Plant response rating, Quackgrass", "setting": "quackgrass; 125 g ai/ha, scale 0 to 100", "result": 70},
      {"measurement": "Plant response rating, Quackgrass", "setting": "quackgrass; [1]", "result": 80},
      {"measurement": "Plant response rating, Quackgrass", "setting": "quackgrass; [2]", "result": 95},
      {"measurement": "Plant response rating, Quackgrass", "setting": "quackgrass; [3]", "result": 95},
      {"measurement": "Plant response rating, Bindweed, Field", "setting": "field bindweed; 125 g ai/ha, scale 0 to 100", "result": 40},
      {"measurement": "Plant response rating, Bindweed, Field", "setting": "field bindweed; [1]", "result": 60},
      {"measurement": "Plant response rating, Bindweed, Field", "setting": "field bindweed; [2]", "result": 95},
      {"measurement": "Plant response rating, Bindweed, Field", "setting": "field bindweed; [3]", "result": 95}
    ]},
    {"smiles": "CCn1nc(C(C)(C)C)cc1C(=O)Nc1cccc(OC(F)F)c1", "note": "[Compound 332]", "values": [
      {"measurement": "Windgrass plant response rating", "setting": "windgrass; Postemergence, 500 g ai/ha, scale 0 to 100", "result": 75},
      {"measurement": "Plant response rating, Windgrass", "setting": "windgrass; [4]", "result": 65},
      {"measurement": "Plant response rating, Windgrass", "setting": "windgrass; [5]", "result": 60},
      {"measurement": "Plant response rating, Windgrass", "setting": "windgrass; [6]", "result": 35}
    ]},
    {"smiles": "CCn1nc(C(C)(C)C)cc1C(=O)Nc1cc(C(=S)N(C)C)ccn1", "note": "[Compound 334]", "values": [
      {"measurement": "Plant response rating, Windgrass", "setting": "windgrass; [4]", "result": 75},
      {"measurement": "Plant response rating, Windgrass", "setting": "windgrass; [5]", "result": 60},
      {"measurement": "Plant response rating, Windgrass", "setting": "windgrass; [6]", "result": 60}
    ]},
    {"smiles": "CCNC(=O)c1ccc(F)c(NC(=O)c2c3c(nn2CC)C(C)(C)CC3)c1", "note": "[Compound 353]", "values": [
      {"measurement": "Plant response rating, Windgrass", "setting": "windgrass; [4]", "result": 10},
      {"measurement": "Plant response rating, Windgrass", "setting": "windgrass; [7]", "result": 10},
      {"measurement": "Plant response rating, Windgrass", "setting": "windgrass; [5]", "result": 10},
      {"measurement": "Plant response rating, Windgrass", "setting": "windgrass; [6]", "result": 0}
    ]},
    {"smiles": "CCOC(=O)c1cccc(NC(=O)c2nn(C(C)(C)CC)nc2CC)c1", "note": "[Compound 375]", "values": [
      {"measurement": "Plant response rating, Windgrass", "setting": "windgrass; [5]", "result": 60},
      {"measurement": "Plant response rating, Windgrass", "setting": "windgrass; [6]", "result": 40}
    ]},
    {"smiles": "C=CCNC(=O)c1cccc(NC(=O)c2nn(C(C)(C)C)nc2CC)c1", "note": "[Compound 414]", "values": [
      {"measurement": "Plant response rating, Windgrass", "setting": "windgrass; [7]", "result": 65},
      {"measurement": "Plant response rating, Windgrass", "setting": "windgrass; [5]", "result": 60},
      {"measurement": "Plant response rating, Windgrass", "setting": "windgrass; [6]", "result": 55}
    ]}
  ]
}
